What was measured:
Assay type in all cases: cell-based, human
melanoma cell lines [1] = test: Apoptosis by flow cytometry using 7-AAD and annexin-V; settings: 1000 IU/mL IFN-gamma 72 hours with pan caspase inhibitor
Method: The methodology of the study was as follows. Autologous and model melanoma tumor cell lines were incubated with 1000 IU/mL of IFN-gamma for 72 hours prior to assaying for autophagy, apoptosis and MHC class II expression. Autophagy was detected by immunobloting with antibodies against LC3 II and by flow cytometry with Enzo's CytoID® Autophagy Detection Kit. Apoptosis and MHC class II induction were assayed by flow cytometry using 7-AAD and annexin-V staining and antibodies against MHC class II, respectively.
Analysis of tumor cell death and changes in major histocompatibility class II expression in response to IFN-gamma were conducted by use of antibodies directed against MHC class II, annexin-V and 7-amino-actinomycin D (7-AAD) and acquired on a Beckton-Dickenson FACS Calibur® flow cytometer.
What was investigated was the induction of autophagy, apoptosis and MHC class II molecules after IFN-gamma treatment of melanoma tumor cells in vitro. Autologous and model melanoma tumor cell lines were incubated with 1000 IU/mL of IFN-gamma for 72 hours prior to assaying for autophagy, apoptosis and […] class II expression. Autophagy was detected by immunobloting with antibodies against LC3 II and by flow cytometry with Enzo's CytoID Autophagy Detection Kit. […]

melanoma cell lines [2] = test: Immunohistochemistry of a panel of melanoma associated antigens with or without IFN-gamma; settings: 1000 IU/mL IFN-gamma 72 hours, N=27 samples
Method: Expression of a panel antigens by melanoma lines were determined using immunocytochemical procedure. Cells were cultured in 8-chamber culture slides (Thermo Fisher, Rochester, N.Y.) in the presence or absence of 1000 IU/mL IFN-gamma. After 72 hours, the cells were washed 3 times with 1× Phosphate Buffered Saline (PBS) and fixed in cold acetone. After blocking endogenous peroxidase, cells were incubated with appropriate primary antibodies against the antigens listed. Immunohistochemistry was performed using biotinylated anitmouse or rabbit immunoglobulins, Super Sensitive enzyme-conjugated streptavidin labeling and horse radish peroxidase chromogen, and substrate kits (Biogenex, San Ramon, Calif.). The reactivity of the following anti-human polyclonal or monoclonal antibodies was investigated with isotype matched control antibody: S-100 and HMB-45 (Biogenex, San Ramon, Calif.), Mel-2, Mel-5, Mart-1 (Signet, Dedham, Mass.), Tyrosinase and Mage-1 (Thermo Scientific, Fremont, Calif.), Melan-A, HLA-class I and HLA-class II (Dako, Denmark).
Lysates from cells that were incubated in the presence or absence of IFN-gamma were subjected to immunoblotting for a variety of molecules that may be important mediators of immunity (FIG. 1B). In the setting of melanoma cells treated with IFN-gamma, heat shock proteins appear to be differentially regulated but remain largely present in the cell preparations, especially in the case of hsp-70.

SK-5-Mel cells = test: Autophagy by flow cytometry (Enzo CytoID Autophagy Detection), IFN-gamma with or without z-VAD; settings: 1000 IU/mL IFN-gamma 72 hours; 20 uM z-VAD where present; vs 5% FBS/RPMI
Method: FIGS. 6A and 6B reveal apoptosis and autophagy induced in response to interferon-gamma. SK-5-Mel cells were incubated with 1000 IU/mL of IFN-gamma for 72 hours after which non-adherent and adherent populations were collected and assayed for apoptosis and autophagy by flow cytometry using […] and Annexin-V (FIG. 6A). Enzo Cyto-ID Autophagy Detection Dye was used to measure autophagy by flow cytometry by measuring the mean intensity peak shift of dye provided by the manufacturer (FIG. 6B). Fold changes in the peak shift in comparison to 5% FBS/RPMI are shown in FIG. 6C with serum-free as positive control for the induction of autophagy.
SK-5-Mel cells were treated with 1000 IU/mL of IFN-gamma in the presence of 20 uM of the pan-caspase inhibitor z-VAD or its control compound, z-FA for 72 hours. The cells were harvested and assayed for autophagy by flow cytometry as in FIG. 6C.
The methodology of the study was as follows. […] Autophagy was detected by immunobloting with antibodies against LC3 II and by flow cytometry with Enzo's CytoID® Autophagy Detection Kit. […]
What was investigated was the induction of autophagy, apoptosis and MHC class II molecules after IFN-gamma treatment of melanoma tumor cells in vitro. […] Autophagy was detected by immunobloting with antibodies against LC3 II and by flow cytometry with Enzo's CytoID Autophagy Detection Kit. […]

[3] = tested on: autologous melanoma tumor cells; test: Trypan-blue dye exclusion viability after IFN-gamma; settings: IFN-gamma 72 hours in complete medium; N=47; p=0.014 vs 89.1±6.8% not treated
Method: Pure tumor cells were generated according to Cornforth, et al. (Cornforth, et al. (2011) Cancer Immunol. Immunother. 60:123-131; Dillman, et al. (1993) J. Immunother. Emphasis Tumor Immunol. 14:65-69; Dillman, et al. (2000) Cancer Biother. Radiopharm. 15:161-168). The tumor cells were then incubated with 1,000 U/mL of interferon-gamma (InterMune, Brisbane, Calif.) for 72 h, irradiated with 100Gy from a cesium source and cryopreserved (Selvan, et al. (2007) Int. J. Cancer 122:1374-1383; Selvan, et al. (2010) Melanoma Res. 20:280-292). The IFN-gamma treated and irradiated tumor cells were recovered from cryopreservation, washed with phosphate buffered saline (PBS), and then added to the cultivated dendritic cells (DCs) and then incubated for about 24 h. The antigen-loaded DCs were harvested by gentle scraping with a rubber policeman and cryopreserved. Aliquots of IFN-gamma treated or untreated tumor cells and loaded DCs were obtained for flow cytometry evaluation and trypan-blue exclusion assay. […]

MHC class II = test: Flow cytometry of MHC class II induction by IFN-gamma in autologous tumor cells; settings: 1000 IU/mL IFN-gamma 72 hours
Method: (§1) FIGS. 2A-D show characterization of IFN-gamma treated autologous tumor cells used for loading dendritic cells. Autologous melanoma tumor cells were treated with or without 1000 IU/mL IFN-gamma for 72 hours in 15% FBS/ECS in RPMI, harvested and irradiated with 100Gy and cryopreserved. Cells were then thawed in AIMV and a sample taken for flow cytometry and for preparation of cell lysates for immunoblotting prior to antigen loading of DCs. An example of four separate autologous melanoma cell lines is shown (FIG. 2A, FIG. 2B and FIG. 2C). Induction major histocompatibility complexes by IFN-gamma treatment of autologous tumor cells (FIG. 2D). Tumor cells were harvested after being treated with or without 1000 IU/mL IFN-gamma for 72 hours and then assayed for MHC class I and class II. Control isotype antibodies were used to identify positive populations. Dark data points indicate median mean fluorescent plus/minus 95% confidence interval. N=65. After irradiation, melanoma cells are checked by assays to ensure that there is not any mitosis.
Phenotypic characterization of the dendritic cell populations were performed using monoclonal antibodies against surface markers obtained from BD Pharmingen San Diego, Calif.: anti-MHC class II conjugated to PerCp, anti CD11c conjugated to APC, anti-CD80, anti-CD83, anti-CD86 conjugated to PE. Isotype controls were used to determine percent positive cells. […]

[4] = tested on: autologous melanoma cell lines; test: Immunoblotting of lysates of melanoma cells incubated with or without IFN-gamma; settings: 1000 IU/mL IFN-gamma 72 hours; four autologous melanoma cell lines
Method: as §1
Cytoplasmic cell lysates were prepared with Mammalian Protein Extraction Reagent (Thermo Scientific, Rockford, Ill.) plus protease inhibitor cocktail (Roche, Indianapolis, Ind.) at 10,000 cells/uL on ice. Approximately 25 uLs/lane of cell lysates were separated on 12.5% tris-glycine gels, transferred to PVDF membrane and probed with antibodies against the following: calreticulin (MBL, Woburn, Mass.), Hsp-60, Hsp-70, Hsp-90 (R&D Systems, Minneapolis, Minn.), HMBG-1 (Cell Signaling, Danvers, Mass.), ICAM-1 (Santa Cruz Biotech, Santa Cruz, Calif.), Mel-4, Mart-1 (Signet, Emeryville, Calif.), tyrosinase (Upstate, Lake Placid, N.Y.) and GADPH (Calbiochem, Darmstadt, Germany).
Lysates from cells that were incubated in the presence or absence of IFN-gamma were subjected to immunoblotting for a variety of molecules that may be important mediators of immunity (FIG. 1B). […]

## carbobenzoxy-valyl-alanyl-aspartyl-[O-methyl]-fluoromethylketone [Z-VAD]
Melanoma cell lines [1]
  apoptosis in IFN-gamma treated cells: prevents apoptosis

## interferon-gamma [IFN-gamma, interferon-gamma (InterMune, Brisbane, Calif.), type II interferon, used at 1000 IU/mL for 72 hours on melanoma cells]
Melanoma cell lines [2]; antigen MAGE-1
  Change after IFN-gamma treatment: Down: 61.5%
Melanoma cell lines [2]; antigen Mel-2
  Change after IFN-gamma treatment: None: 46.2%
Melanoma cell lines [2]; antigen Tyrosinase
  Change after IFN-gamma treatment: Down: 60.0%
  Change after IFN-gamma treatment: None: 40.0%
SK-5-Mel cells
  autophagy, fold change of peak shift: 2.75±0.15 fold change
[3]
  viability (trypan-blue dye exclusion): 84.9±9.3%
MHC class II
  cases with MHC class II induction greater than two fold: 70%
[4]
  ICAM-1 expression (immunoblot): significantly up-regulated
  calreticulin and HMGB-1 expression (immunoblot): up-regulated in some cases
  common melanoma antigens (mel-4, Mart-1 and tyrosinase) expression (immunoblot): down regulated

Source: patent US9555058B2, “Antigen presenting cancer vaccine” (CALIFORNIA STEM CELL, INC., priority 2011, dated 2017)
